Literature values in US7407975B2, “Epothilone derivatives, method for producing same and their pharmaceutical use” (priority 1997, dated 2008).

System: P-glycoprotein-forming multiresistant tumor lines
Conditions: in comparison to taxol

SMILES | activity against P-glycoprotein-forming multiresistant tumor lines
C/C(=C\c1csc(C)n1)[C@@H]1C[C@@H]2O[C@@H]2CCC[C@H](C)[C@H](O)[C@@H](C)C(=O)C(C)(C)[C@@H](O)CC(=O)O1 [Epothilone A, epothilone A] | significantly higher activity
C/C(=C\c1csc(C)n1)[C@@H]1C[C@@H]2O[C@]2(C)CCC[C@H](C)[C@H](O)[C@@H](C)C(=O)C(C)(C)[C@@H](O)CC(=O)O1 [Epothilone B, epothilone B] | significantly higher activity
